Results: patent US8648116B2, “Derivatives of N-(arylamino) sulfonamides including polymorphs as inhibitors of MEK as well as compositions, methods of use and methods for preparing the same” (Ardea Biosciences, Inc., priority 2005, dated 2014)
Like-named read-outs stand apart in the source and are kept apart here.

What was measured:
[1] = system: HT29 colon cancer tumors; assay: Anti-tumor xenograft activity, TGI (Example 94); assay type: in vivo, nu/nu mice; conditions: 25 mg/kg QD oral, 14 days
Method: Human tumors were implanted in nu/nu mice. Compound A was administered orally for 14 days once tumors were approximately 100 mm^3 in size. Tumor growth inhibition (TGI) was determined after 14 days of treatment as the reduction in the size of tumors in treated groups versus vehicle controls. The time to endpoint (TTE) was calculated as the time for the tumor to reach the specified endpoint volume or the last day of the study, whichever came first. Treatment outcome was determined from percent tumor growth delay (% TGD), defined as the percent increase in median TTE of treated versus vehicle-treated control mice. Animals were also monitored for regression responses. Levels of pERK in tumors and brain were determined by Western blots and correlated with plasma levels of Compound A for the pharmacodynamic/pharmacokinetic study. A number of tumor models were evaluated with different doses and dosing regimens. […] The effect of different dosing regimens was evaluated in A375 xenografts.
Female nu/nu mice were implanted with A375 Melanoma, Colo205 Colon Tumor, A431 Epidermoid Tumor or HT-29 Colon Tumor cells, which were allowed to grow to 100-200 mm^3. […]
Tumor Growth Inhibition for the groups treated with 25 mg/kg Compound A were calculated for the indicated tumor xenografts. Tumor Growth Inhibition was measured at the end of once daily dosing for 14 days and calculated according to: […]

[2] = Pharmacokinetic parameters in Balb/c mice (Example 94D); assay type: in vivo
Method: Pharmacokinetic parameters were obtained from dosing Balb/c mice with 25 mg/kg Compound A and extrapolating values for the lower dose groups and shown in the table below.

[3] = system: carrageenan-induced hind paw edema; assay: Carrageenan-induced paw edema (CPE); assay type: in vivo, Sprague-Dawley rats; conditions: 6, 20 & 60 mg/kg orally 2 hr before carrageenan; all dose groups
Method: Compound A (6, 20 & 60 mg/kg) or indomethacin (3 mg/kg) were administered orally 2 hr prior to injection of 1% suspension of carrageenan into the right hind foot pad of male Sprague-Dawley rats (N-6 per treatment group). The hind paw edema was measured 3 hr later by assessing paw volume by plethysmography. Reduction of hind paw edema by 30% or greater indicates significant acute anti-inflammatory activity. Indomethacin (Indo) was used as a positive control drug.

[4] = system: MDA-MB231 breast adenocarcinoma cells; assay: Anchorage-dependent growth inhibition (ATP content, 48 hr); assay type: cell-based, human
[5] = system: MDA-MB231 cells; assay: Anchorage-independent growth inhibition (MTS, 7 days); assay type: cell-based, human
[6] = system: A375 cells; assay: Cytotoxic lysis by adenylate kinase (AK) release, 48 hr; assay type: cell-based, human
Method: Cell supernatants were analyzed for cytotoxic lysis by measuring adenylate kinase (AK) release. […] The lack of AK release was confirmed for all cell lines tested.
100% viability (ATP assay) was determined in vehicle only control wells.

[7] = system: A375 cells; assay: Evaluation of cell cycle arrest (propidium iodide, flow cytometry); assay type: cell-based, human; conditions: 24 hr
Method: A375 cells were plated in 96-well microplates at 10,000 cells/200 μl/well. […] After another 24 hr, cells were trypsinized, fixed in 200 μl Prefer (Anatech, Battle Creek, Mich.), and stored at 4° C. overnight. Cells were then rinsed in PBS, permeabilized and stained in 0.1% Triton X-100, 200 μg/ml DNase-free RNase, and […] propidium iodide (Molecular Probes, Sunnyvale, Calif.), and analyzed on the Guava PCA-96 (Guava Technologies, Foster City, Calif.). Data were analyzed using ModFit LT (version 3.0, Verity, Topsham, Me.).

[8] = 2.5 mg/kg, extrapolated from 25 mg/kg in Balb/c mice
[9] = 5 mg/kg, extrapolated from 25 mg/kg in Balb/c mice
[10] = 10 mg/kg, extrapolated from 25 mg/kg in Balb/c mice

SMILES: COc1cc(F)c(F)c(Nc2ccc(I)cc2F)c1NS(=O)(=O)C1(C[C@H](O)CO)CC1 [Compound A]
- % TGI [1]: 56%
- AUC [2, 8]: 5500 ng·h/mL
- Cmax [2, 8]: 990 ng/mL
- Cmin [2, 8]: 3 ng/mL
- AUC [2, 9]: 11000 ng·h/mL
- Cmax [2, 9]: 1970 ng/mL
- Cmin [2, 9]: 6 ng/mL
- AUC [2, 10]: 22000 ng·h/mL
- Cmax [2, 10]: 3940 ng/mL
- Cmin [2, 10]: 12 ng/mL
- Cmin ([2]; 25 mg/kg, Balb/c mice): 29 ng/mL
- AUC ([2]; mouse, in vivo, oral, 25 mg/kg, Balb/c mice, read-out: AUC): 55000 ng·h/mL
- Cmax ([2]; mouse, in vivo, oral, 25 mg/kg, Balb/c mice, read-out: Cmax): 9850 ng/mL
- hind paw edema (paw volume) [3]: significant anti-inflammatory activity

SMILES: COc1cc(F)c(F)c(Nc2ccc(I)cc2F)c1NS(=O)(=O)C1(C[C@H](O)CO)CC1
- GI50 ([4]; MDA (MDA-MB231), 48 hr, ATP content): > 1000 nM
- growth arrest in 2-dimensional anchorage dependent assays ([4]; MDA-MB231 cells): do not show
- GI50 ([5]; MDA-MB231, anchorage independent): 81 nM
- anchorage independent growth (FIG. 12C) ([5]; MDA-MB231 cells): inhibition of MDA-M8231 cells
- AK, Cell killing, % Control ([6]; 1 uM): 4%
- cytotoxic cell lysis (AK release) ([6]; 100% cell killing with 20 μM tamoxifen): lack of cytotoxic cell lysis
- effect on cell cycle progression [7]: arrest in the G1 phase of the cell cycle
